Measurements: US20260062412A1, “NITROGEN-CONTAINING HETEROCYCLIC COMPOUND HAVING MYT1 INHIBITORY ACTIVITY” (CHUGAI SEIYAKU KABUSHIKI KAISHA, priority 2023, published 2026)

Biological target: MYT1 protein (Homo sapiens (Human), UniProt Q99640)
Test: Test for binding to ATP binding site of MYT1 (Kinase Tracer 178 / Eu-Anti-GST antibody TR-FRET)
Conditions: ATP binding site of MYT1, 30 minutes at room temperature

Chain of MYT1 protein (Q99640 whole entry): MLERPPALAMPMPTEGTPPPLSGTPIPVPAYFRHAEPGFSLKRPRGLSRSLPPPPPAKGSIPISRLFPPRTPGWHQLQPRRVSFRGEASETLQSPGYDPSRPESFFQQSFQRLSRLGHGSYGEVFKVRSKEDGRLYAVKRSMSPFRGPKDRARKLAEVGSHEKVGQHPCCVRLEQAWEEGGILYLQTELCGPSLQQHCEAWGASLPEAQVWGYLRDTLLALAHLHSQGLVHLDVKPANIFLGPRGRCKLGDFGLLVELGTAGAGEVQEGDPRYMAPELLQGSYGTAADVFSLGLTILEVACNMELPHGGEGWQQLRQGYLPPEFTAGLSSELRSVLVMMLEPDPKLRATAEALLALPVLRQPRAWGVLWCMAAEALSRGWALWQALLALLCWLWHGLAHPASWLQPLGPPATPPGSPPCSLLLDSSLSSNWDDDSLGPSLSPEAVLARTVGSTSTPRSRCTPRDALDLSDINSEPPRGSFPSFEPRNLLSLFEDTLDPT

SMILES	IC50
Nc1c(-c2ccc(F)c3[nH]ncc23)c2cc(C3CCN(C4CCC4)CC3)c3cccnc3c2[nH]c1=O [Compound D24, 3-Amino-6-(1-cyclobutylpiperidin-4-yl)-4-(7-fluoro-1H-indazol-4-yl)-1H-1,10-phenanthrolin-2-one]	6.9 nM
CCN1CCC(c2cc3c(-c4ccc(F)c5[nH]ncc45)c(N)c(=O)[nH]c3c3ncccc23)CC1 [Compound D26, 3-Amino-6-(1-ethylpiperidin-4-yl)-4-(7-fluoro-1H-indazol-4-yl)-1H-1,10-phenanthrolin-2-one]	3.3 nM
Nc1c(-c2ccc(F)c3[nH]ncc23)c2cc(C3CNC3)c3cccnc3c2[nH]c1=O [Compound D28, 3-Amino-6-(azetidin-3-yl)-4-(7-fluoro-1H-indazol-4-yl)-1H-1,10-phenanthrolin-2-one]	1.7 nM
Nc1c(-c2cccc3[nH]ncc23)c2ccccc2oc1=O [Compound E1, 3-Amino-4-(1H-indazol-4-yl) chromen-2-one]	1100 nM
Cc1cc2c(-c3cc(F)c(F)c4[nH]ncc34)c(N)c(=O)[nH]c2c2cc(F)cnc12 [Compound F6, 3-Amino-4-(6,7-difluoro-1H-indazol-4-yl)-9-fluoro-6-methyl-1H-1,7-phenanthrolin-2-one]	9.3 nM
Nc1c(-c2ccc(F)c3[nH]ncc23)c2cc(Br)c3nccnc3c2[nH]c1=O [Compound G1, 8-Amino-5-bromo-7-(7-fluoro-1H-indazol-4-yl)-10H-pyrido[2,3-f]quinoxalin-9-one]	16 nM
O=c1[nH]c2c(cc(Br)c3nccnc32)c(-c2ccc(F)c3[nH]ncc23)c1Cl [Compound G2, 5-Bromo-8-chloro-7-(7-fluoro-1H-indazol-4-yl)-10H-pyrido[2,3-f]quinoxalin-9-one]	270 nM
Cc1cc2c(-c3ccc(F)c4[nH]ncc34)c(N)c(=O)[nH]c2c2nccnc12 [Compound G3, 8-Amino-7-(7-fluoro-1H-indazol-4-yl)-5-methyl-10H-pyrido[2,3-f]quinoxalin-9-one]	7.9 nM
Nc1c(-c2ccc(F)c3[nH]ncc23)c2cc(C3CC3)c3nccnc3c2[nH]c1=O [Compound G4, 8-Amino-5-cyclopropyl-7-(7-fluoro-1H-indazol-4-yl)-10H-pyrido[2,3-f]quinoxalin-9-one]	3.2 nM
CS(=O)(=O)Nc1cc2c(-c3ccc(F)c4[nH]ncc34)c(N)c(=O)[nH]c2c2nccnc12 [Compound G5, N-[8-amino-7-(7-fluoro-1H-indazol-4-yl)-9-oxo-10H-pyrido[2,3-f]quinoxalin-5-yl]methanesulfonamide]	9.3 nM
Nc1c(-c2ccc(F)c3[nH]ncc23)c2cc(NS(=O)(=O)C3CC3)c3nccnc3c2[nH]c1=O [Compound G6, N-[8-amino-7-(7-fluoro-1H-indazol-4-yl)-9-oxo-10H-pyrido[2,3-f]quinoxalin-5-yl]cyclopropanesulfonamide]	7.4 nM
CC(=O)Nc1cc2c(-c3ccc(F)c4[nH]ncc34)c(N)c(=O)[nH]c2c2nccnc12 [Compound G8, N-[8-amino-7-(7-fluoro-1H-indazol-4-yl)-9-oxo-10H-pyrido[2,3-f]quinoxalin-5-yl]acetamide]	1.4 nM
CC(C)Nc1cc2c(-c3ccc(F)c4[nH]ncc34)c(N)c(=O)[nH]c2c2nccnc12 [Compound G9, 8-Amino-7-(7-fluoro-1H-indazol-4-yl)-5-(propan-2-ylamino)-10H-pyrido[2,3-f]quinoxalin-9-one]	4.4 nM
CC[C@H](C)Oc1cc2c(-c3ccc(F)c4[nH]ncc34)c(N)c(=O)[nH]c2c2nccnc12 [Compound G13, 8-Amino-5-[(2S)-butan-2-yl]oxy-7-(7-fluoro-1H-indazol-4-yl)-10H-pyrido[2,3-f]quinoxalin-9-one]	0.49 nM
CC(C)Oc1cc2c(-c3ccc(F)c4[nH]ncc34)c(N)c(=O)[nH]c2c2nccnc12 [Compound G15, 8-Amino-7-(7-fluoro-1H-indazol-4-yl)-5-propan-2-yloxy-10H-pyrido[2,3-f]quinoxalin-9-one]	1.6 nM
Nc1c(-c2ccc(F)c3[nH]ncc23)c2cc(O[C@H]3C[C@@H](F)C3)c3nccnc3c2[nH]c1=O [Compound G17, 8-Amino-5-((1s,3s)-3-fluorocyclobutyl)oxy-7-(7-fluoro-1H-indazol-4-yl)-10H-pyrido[2,3-f]quinoxalin-9-one]	0.85 nM
Nc1c(-c2ccc(F)c3[nH]ncc23)c2cc(Br)c3cnsc3c2[nH]c1=O [Compound H1, 7-Amino-4-bromo-6-(7-fluoro-1H-indazol-4-yl)-9H-[1,2]thiazolo[4,5-h]quinolin-8-one]	6.2 nM
Cn1ncc2c(Br)cc3c(-c4ccc(F)c5[nH]ncc45)c(N)c(=O)[nH]c3c21 [Compound I1, 7-Amino-4-bromo-6-(7-fluoro-1H-indazol-4-yl)-1-methyl-9H-pyrazolo[4,3-h]quinolin-8-one]	33 nM
Cc1cc2c(-c3ccc(F)c4[nH]ncc34)c(N)c(=O)[nH]c2c2c1cnn2C [Compound I2, 7-Amino-6-(7-fluoro-1H-indazol-4-yl)-1,4-dimethyl-9H-pyrazolo[4,3-h]quinolin-8-one]	16 nM

Further lines, results first:

IC50	SMILES
3.8 nM	Nc1c(-c2ccc(F)c3[nH]ncc23)c2cc(C3CCNCC3)c3cccnc3c2[nH]c1=O [Compound D21, 3-Amino-4-(7-fluoro-1H-indazol-4-yl)-6-piperidin-4-yl-1H-1,10-phenanthrolin-2-one]
2.9 nM	CN1CCC(c2cc3c(-c4ccc(F)c5[nH]ncc45)c(N)c(=O)[nH]c3c3ncccc23)CC1 [Compound D22, 3-Amino-4-(7-fluoro-1H-indazol-4-yl)-6-(1-methylpiperidin-4-yl)-1H-1,10-phenanthrolin-2-one]
6.4 nM	CC(C)N1CCC(c2cc3c(-c4ccc(F)c5[nH]ncc45)c(N)c(=O)[nH]c3c3ncccc23)CC1 [Compound D23, 3-Amino-4-(7-fluoro-1H-indazol-4-yl)-6-(1-propan-2-ylpiperidin-4-yl)-1H-1,10-phenanthrolin-2-one]
7.8 nM	Nc1c(-c2ccc(F)c3[nH]ncc23)c2cc(C3CCN(C4CCOCC4)CC3)c3cccnc3c2[nH]c1=O [Compound D25, 3-Amino-4-(7-fluoro-1H-indazol-4-yl)-6-[1-(oxan-4-yl)piperidin-4-yl]-1H-1,10-phenanthrolin-2-one]
0.53 nM	Nc1c(-c2ccc(F)c3[nH]ncc23)c2cc(C3CCN(C4COC4)CC3)c3cccnc3c2[nH]c1=O [Compound D27, 3-Amino-4-(7-fluoro-1H-indazol-4-yl)-6-[1-(oxetan-3-yl)piperidin-4-yl]-1H-1,10-phenanthrolin-2-one]
5.7 nM	CC(C)N1CC(c2cc3c(-c4ccc(F)c5[nH]ncc45)c(N)c(=O)[nH]c3c3ncccc23)C1 [Compound D29, 3-Amino-4-(7-fluoro-1H-indazol-4-yl)-6-(1-propan-2-ylazetidin-3-yl)-1H-1,10-phenanthrolin-2-one]
2.9 nM	CN1CC(c2cc3c(-c4ccc(F)c5[nH]ncc45)c(N)c(=O)[nH]c3c3ncccc23)C1 [Compound D30, 3-Amino-4-(7-fluoro-1H-indazol-4-yl)-6-(1-methylazetidin-3-yl)-1H-1,10-phenanthrolin-2-one]
840 nM	O=c1[nH]c2ccccc2c(-c2cccc3[nH]ncc23)c1O [Compound E2, 3-Hydroxy-4-(1H-indazol-4-yl)-1H-quinolin-2-one]
12 nM	Nc1c(-c2ccc(F)c3[nH]ncc23)c2cc(Br)c3ncc(F)cc3c2[nH]c1=O [Compound F1, 3-Amino-6-bromo-9-fluoro-4-(7-fluoro-1H-indazol-4-yl)-1H-1,7-phenanthrolin-2-one]
4 nM	Cc1cc2c(-c3ccc(F)c4[nH]ncc34)c(N)c(=O)[nH]c2c2cc(F)cnc12 [Compound F3, 3-Amino-9-fluoro-4-(7-fluoro-1H-indazol-4-yl)-6-methyl-1H-1,7-phenanthrolin-2-one]
22 nM	Nc1c(-c2cc(F)c(F)c3[nH]ncc23)c2cc(Br)c3ncc(F)cc3c2[nH]c1=O [Compound F4, 3-Amino-6-bromo-4-(6,7-difluoro-1H-indazol-4-yl)-9-fluoro-1H-1,7-phenanthrolin-2-one]
3.3 nM	COc1cc2c(-c3cc(F)c(F)c4[nH]ncc34)c(N)c(=O)[nH]c2c2cc(F)cnc12 [Compound F5, 3-Amino-4-(6,7-difluoro-1H-indazol-4-yl)-9-fluoro-6-methoxy-1H-1,7-phenanthrolin-2-one]
2.5 nM	CN1CCN(c2cc3c(-c4ccc(F)c5[nH]ncc45)c(N)c(=O)[nH]c3c3nccnc23)CC1 [Compound G7, 8-Amino-7-(7-fluoro-1H-indazol-4-yl)-5-(4-methylpiperazin-1-yl)-10H-pyrido[2,3-f]quinoxalin-9-one]
2.2 nM	COc1cc2c(-c3ccc(F)c4[nH]ncc34)c(N)c(=O)[nH]c2c2nccnc12 [Compound G10, 8-Amino-7-(7-fluoro-1H-indazol-4-yl)-5-methoxy-10H-pyrido[2,3-f]quinoxalin-9-one]
2.5 nM	Nc1c(-c2ccc(F)c3[nH]ncc23)c2cc(OCC3CC3)c3nccnc3c2[nH]c1=O [Compound G11, 8-Amino-5-(cyclopropylmethoxy)-7-(7-fluoro-1H-indazol-4-yl)-10H-pyrido[2,3-f]quinoxalin-9-one]
0.95 nM	N#C[C@H]1C[C@H](Oc2cc3c(-c4ccc(F)c5[nH]ncc45)c(N)c(=O)[nH]c3c3nccnc23)C1 [Compound G12, (1r,3r)-3-[[8-Amino-7-(7-fluoro-1H-indazol-4-yl)-9-oxo-10H-pyrido[2,3-f]quinoxalin-5-yl]oxy]cyclobutane-1-carbonitrile]
0.69 nM	CC[C@@H](C)Oc1cc2c(-c3ccc(F)c4[nH]ncc34)c(N)c(=O)[nH]c2c2nccnc12 [Compound G14, 8-Amino-5-[(2R)-butan-2-yl]oxy-7-(7-fluoro-1H-indazol-4-yl)-10H-pyrido[2,3-f]quinoxalin-9-one]
0.79 nM	Nc1c(-c2ccc(F)c3[nH]ncc23)c2cc(OCCC(F)F)c3nccnc3c2[nH]c1=O [Compound G18, 8-Amino-5-(3,3-difluoropropoxy)-7-(7-fluoro-1H-indazol-4-yl)-10H-pyrido[2,3-f]quinoxalin-9-one]
1.8 nM	Cc1cc2c(-c3ccc(F)c4[nH]ncc34)c(N)c(=O)[nH]c2c2sncc12 [Compound H2, 7-Amino-6-(7-fluoro-1H-indazol-4-yl)-4-methyl-9H-[1.2]thiazolo[4,5-h]quinolin-8-one]
